In patent US20250382303A1, “NOVEL COMPOUND AS NADPH OXIDASE 2 INHIBITOR AND PHARMACEUTICAL COMPOSITION CONTAINING SAME” (DONGGUK UNIVERSITY INDUSTRY-ACADEMIC COOPERATION FOUNDATION, priority 2022, published 2025):
pIC50: −log10 of the molar value.

Biological target: T1, NOX2 (Homo sapiens, UniProt P04839)
T1 construct: Used for the NOX2 activity assay was human leukemia 60 cells (HL-60), which are widely, universally used to assess NOX2 activity; endogenous in cells
T1 sequence (P04839 2-570 limits assumed): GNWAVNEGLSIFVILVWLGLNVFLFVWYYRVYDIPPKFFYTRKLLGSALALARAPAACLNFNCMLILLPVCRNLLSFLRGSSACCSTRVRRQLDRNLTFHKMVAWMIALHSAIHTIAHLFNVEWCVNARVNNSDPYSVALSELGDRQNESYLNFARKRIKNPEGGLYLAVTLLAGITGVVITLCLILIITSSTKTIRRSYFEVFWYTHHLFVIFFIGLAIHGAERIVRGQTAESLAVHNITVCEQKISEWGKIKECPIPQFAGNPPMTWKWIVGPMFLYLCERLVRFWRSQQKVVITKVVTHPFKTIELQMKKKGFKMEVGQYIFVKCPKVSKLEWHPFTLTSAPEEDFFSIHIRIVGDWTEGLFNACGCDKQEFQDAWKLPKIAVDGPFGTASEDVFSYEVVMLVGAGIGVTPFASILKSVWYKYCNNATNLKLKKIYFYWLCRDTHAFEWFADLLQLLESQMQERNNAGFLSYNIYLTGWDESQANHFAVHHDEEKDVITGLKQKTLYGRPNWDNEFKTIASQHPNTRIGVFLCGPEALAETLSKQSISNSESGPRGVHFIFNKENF
T1 sequence (P13498 2-195 partner limits assumed): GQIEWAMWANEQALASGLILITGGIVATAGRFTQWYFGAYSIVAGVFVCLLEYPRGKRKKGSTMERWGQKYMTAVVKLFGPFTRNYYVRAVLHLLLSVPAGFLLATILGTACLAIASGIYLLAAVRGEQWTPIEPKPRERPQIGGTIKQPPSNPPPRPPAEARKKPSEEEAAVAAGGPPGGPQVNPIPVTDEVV
Assay: NOX2 activity assay: PMA-induced ROS in ATRA-differentiated HL-60 cells (WST-1 or Amplex Red/HRP probe)
Assay type: cell-based
Conditions: WST-1 probe; differentiated HL-60, 200 ng/mL PMA; read-out: Inhibitory ability (NOX2)
Procedure: NOX activity was evaluated by measuring the reactive oxygen species (ROS) produced by NOX. The probes that were used to measure ROS were water soluble tetrazolium-1 (WST-1, superoxide-specific colorimetric probe) and Amplex Red/horseradish peroxidase (AR/HRP, hydrogen peroxide-specific fluorometric probe), and the concentration of the probes used was […]. For WST-1, the change in the absorbance at 450 nm was measured, and, for AR, the change in fluorescence signals was measured at 560 nm and 585 nm, respectively for excitation wavelength (Ex) and emission wavelength (Em). The optical signal was measured using the SpectraMax M3 microplate reader from Molecular Devices at 37° C. for 60 minutes.
Used for the NOX2 activity assay was human leukemia 60 cells (HL-60), which are widely, universally used to assess NOX2 activity. 1×10^5 cells/mL of HL-60 were treated with […] all-trans-retinoic acid (ATRA) for 4 days to induce differentiation. Differentiated HL-60 (diff. HL-60) was centrifuged at 200 g for 5 minutes and washed twice with HBSS. Differentiation was induced to reach 3×10^4 cells/well on a 96-well plate (diff). HL-60 was seeded. The test material was treated to cells and left in a 37° C. incubator for 60 minutes. As a control group, the same concentration of DMSO, which is the vehicle of the test material, was used. 200 ng/mL phorbol 12-myristate 13-acetate (PMA) was used as the NOX2 activator, and the production amount of ROS induced by PMA was measured for 60 minutes. […] diphenyleneiodonium (DPI), which is well known to inhibit NOX, was used as a positive control group to evaluate whether the NOX2 activity tester properly operates.

Row | SMILES | pIC50
1 | CC12CC(NC(=O)N1c1cccc(C(=O)NCc3ccco3)c1)c1ccccc1O2 (racemic) [Compound 8g, N-(Furan-2-ylmethyl)-3-(2-methyl-4-oxo-5,6-dihydro-2H-2,6-methanobenzo[g][1,3,5]oxadiazocin-3(4H)-yl)benzamide] | < 5.00
2 | CC12CC(NC(=O)N1c1cccc(C(=O)NC3CC3)c1)c1ccccc1O2 (racemic) [Compound 8h, N-Cyclopropyl-3-(2-methyl-4-oxo-5,6-dihydro-2H-2,6-methanobenzo[g][1,3,5]oxadiazocin-3(4H)-yl)benzamide] | < 5.00
3 | CN(Cc1ccccc1)C(=O)c1cccc(N2C(=O)NC3CC2(C)Oc2ccccc23)c1 (racemic) [Compound 8i, N-Benzyl-N-methyl-3-(2-methyl-4-oxo-5,6-dihydro-2H-2,6-methanobenzo[g][1,3,5]oxadiazocin-3(4H)-yl)benzamide] | < 5.00
4 | CC12CC(NC(=O)N1c1cccc(C(=O)O)c1)c1ccccc1O2 (stereo not drawn) [Compound 7, 3-(2-Methyl-4-oxo-5,6-dihydro-2H-2,6-methanobenzo[g][1,3,5]oxadiazocin-3(4H)-yl)benzoic acid] | < 5.00
5 | CN1C(=O)N(c2cccc(C(=O)N3CCc4ccccc4C3)c2)C2(C)CC1c1ccccc1O2 (stereo not drawn) [Compound 9, 2,5-Dimethyl-3-(3-(1,2,3,4-tetrahydroisoquinoline-2-carbonyl)phenyl)-5,6-dihydro-2H-2,6-methanobenzo[g][1,3,5]oxadiazocin-4(3H)-one] | < 5.00
6 | C[C@@]12C[C@@H](NC(=O)N1c1cccc(C(=O)N3CCc4ccccc4C3)c1)c1ccccc1O2 [Compound 10a, (2R,6R)-2-Methyl-3-(3-(1,2,3,4-tetrahydroisoquinoline-2-carbonyl)phenyl)-5,6-dihydro-2H-2,6-methanobenzo[g][1,3,5]oxadiazocin-4(3H)-one] | < 5.00
7 | C[C@@]12C[C@@H](NC(=O)N1c1cccc(C(=O)NCc3ccc(Br)cc3)c1)c1ccccc1O2 [Compound 10b, N-(4-Bromobenzyl)-3-((2R,6R)-2-methyl-4-oxo-5,6-dihydro-2H-2,6-methanobenzo[g][1,3,5]oxadiazocin-3(4H)-yl)benzamide] | < 5.00

Continued, values first:

Row | pIC50 | SMILES
8 | < 5.00 | COc1cc2c(cc1OC)CN(C(=O)c1cccc(N3C(=O)NC4CC3(C)Oc3ccccc34)c1)CC2 (racemic) [Compound 8b, 3-(3-(6,7-Dimethoxy-1,2,3,4-tetrahydroisoquinoline-2-carbonyl)phenyl)-2-methyl-5,6-dihydro-2H-2,6-methanobenzo[g][1,3,5]oxadiazocin-4(3H)-one]
9 | < 5.00 | CC12CC(NC(=O)N1c1cccc(C(=O)NCc3ccc(C(F)(F)F)cc3)c1)c1ccccc1O2 (racemic) [Compound 8c, 3-(2-Methyl-4-oxo-5,6-dihydro-2H-2,6-methanobenzo[g][1,3,5]oxadiazocin-3(4H)-yl)-N-(4-(trifluoromethyl)benzyl)benzamide]
10 | 5.00 to 6.00 | CC12CC(NC(=O)N1c1cccc(C(=O)NCCc3ccc(C(F)(F)F)cc3)c1)c1ccccc1O2 (racemic) [Compound 8d, 3-(2-Methyl-4-oxo-5,6-dihydro-2H-2,6-methanobenzo[g][1,3,5]oxadiazocin-3(4H)-yl)-N-(4-(trifluoromethyl)phenethyl)benzamide]
11 | < 5.00 | CC12CC(NC(=O)N1c1cccc(C(=O)NC3Cc4ccccc4C3)c1)c1ccccc1O2 (racemic) [Compound 8e, N-(2,3-Dihydro-1H-inden-2-yl)-3-(2-methyl-4-oxo-5,6-dihydro-2H-2,6-methanobenzo[g][1,3,5]oxadiazocin-3(4H)-yl)benzamide]
12 | < 5.00 | CC12CC(NC(=O)N1c1cccc(C(=O)NCc3cccnc3)c1)c1ccccc1O2 (racemic) [Compound 8f, 3-(2-Methyl-4-oxo-5,6-dihydro-2H-2,6-methanobenzo[g][1,3,5]oxadiazocin-3(4H)-yl)-N-(pyridin-3-ylmethyl)benzamide]
